Holding throughout (assay type): cell-based
One assay concerns the target T1, Des1 (h) (Homo sapiens, UniProt O15121).
T1 construct: endogenous in cells; host or cells: parental Jurkat cells
T1 sequence (O15121 1-323): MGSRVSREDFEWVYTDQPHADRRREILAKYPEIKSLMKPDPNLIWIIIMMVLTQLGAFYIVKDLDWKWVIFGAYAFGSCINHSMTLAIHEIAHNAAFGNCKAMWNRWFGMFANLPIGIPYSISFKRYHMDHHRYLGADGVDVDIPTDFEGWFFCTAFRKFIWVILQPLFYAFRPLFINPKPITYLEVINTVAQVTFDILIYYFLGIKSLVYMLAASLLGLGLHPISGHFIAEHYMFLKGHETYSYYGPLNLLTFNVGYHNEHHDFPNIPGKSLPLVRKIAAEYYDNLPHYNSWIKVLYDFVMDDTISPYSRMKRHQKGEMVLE
Briefly: Measurement of Dihydroceramide Desaturase-1 (Des-1) activity in intact Jurkat cells labeled with DhCer-C6-NBD (HPLC). The settings on record: intact Jurkat cells; given as concentration range, or <X / >X if measured at one concentration X only; read-out: Des1 (h) Jurkat IC50. In short, it runs like this: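 Intact parental Jurkat cells in 0.5% serum medium were labelled with DhCer-C6-NBD; cells harvested at 500×g and ceramides extracted. NBD-labelled substrate and product resolved by C18 reverse-phase HPLC and quantified by fluorescence (ex 465/em 530 nm) as a measure of Des-1 activity.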

Assay [1] deals with Connective Tissue Growth Factor (CTGF) gene expression. Nature of the assay: Real time quantitative PCR in TGFβ-stimulated human hepatic stellate cells (LX2) to detect CTGF gene expression. The settings on record: LX-2, 5 μM, CTGF mRNA in TGFβ-stimulated LX2 cells vs vehicle control. Here is the method: Real Time Quantitative Polymerase Chain Reaction in Human Hepatic Stellate Cells (LX2) to Detect Connective Tissue Growth Factor (CTGF) Gene Expression The hepatic stellate cell line, LX2 was maintained in DMEM (LifeTechnologies) with 2% heat-inactivated FBS, 100U penicillin (LifeTechnologies), 0.1 mg/mL streptomycin (LifeTechnologies), and 2 mM L-glutamine (LifeTechnologies) at 37° C. with 5% CO2. Cells were seeded into 6-well plates (200,000 cells per well, 2 mLs media) and grown overnight. The cells were changed to 2 mLs 0.5% FBS media for 24 hours prior to treatment. Treatments were added in 2 mLs fresh 0.5% FBS media (vehicle control, long/mL TGFβ alone (R&D Systems), 10 ng/mL TGFβ+inhibitors) and incubated for 24 hours. […] RNA was extracted using Qiagen RNeasy kit (cat #74104), according to manufacturer's instructions. RNA (1 μg) was used to generate cDNA using the Qiagen Quantitect Reverse Transcription Kit (cat #205311), and stored at -20° C. cDNA was diluted (1:25 final) and combined with Sybr Green (Qiagen cat #204143), forward and reverse primers (50 ng each) and run on Real Time PCR Thermocycler machine (RG-6000, Corbett) with the following PCR conditions: Hold 1: 50° C. for 2 min; Hold 2: 95° C. for 15 min; Cycling: 45 cycles of: 95° C. for 30 sec, 58° C. for 21 sec, 72° C. for 15 sec, Hold 3: 72° C. for 30 sec, Melt: 72° C. to 99° C. GAPDH primers (Forward: [NT]; Reverse: [NT] primers (Forward: [NT]; Reverse: [NT] primers available from Origene, cat #HP205671)].

Assay [2] concerns TGF-β1-mediated αSMA expression. Nature of the assay: Fibroblast-to-Myofibroblast Transition (FMT) in human lung cells derived from IPF patient donors. Particulars: primary human bronchial fibroblasts from IPF donors; 8 concentrations up to 10 μM; FIG. 2. As for the experimental part:
Fibroblast-to-Myofibroblast Transition (FMT) in Human Lung Cells Derived from Idiopathic Pulmonary Fibrosis (IPF) Patient Donors
Lung-derived primary human bronchial fibroblasts (from IPF donors) were seeded at 3,000 cells per well in 96-well plates, and were grown over 5 days prior to treatment with the desired compounds (cell medium was refreshed at 48 h). Cells were then treated with 8 different concentrations of Compound 8 or 46, in semi-log dilutions starting from the top dosage of 10 μM (vehicle control: 0.1% DMSO; positive control: SB525334 and nintendanib). 1-hour post compound addition, the cells were stimulated with the addition of 1.25 ng/mL TGF-β1, and incubated for 72 hours. Cells were then fixed with 4% formaldehyde, then stained using […] and imaged via high-content analysis. The assay was conducted in biological duplicates. This in vitro FMT assay results were provided by Charles River Laboratories through a service agreement.

Experimental findings from patent US12448371B2, “Inhibitor compounds” (Cincera Therapeutics Pty Ltd, priority 2019, dated 2025) are described below.

One may read the IC50 as the concentration needed to halve the response being measured. A word on the inhibition: it is the share of the control response that was lost under treatment.

For the molecule `N=C(NO)c1ccc(Nc2ncc(-c3ccc(C(F)(F)F)cc3)o2)cn1` [Example 8, 5-((5-[4-(Trifluoromethyl)phenyl]-1,3-oxazol-2-yl)amino)-N-hydroxy-pyridine-2-carboximidamide], the IC50 on Des1 (h) lay in the range of 100 to 1000 nM. Also, the inhibition at 5 µM in assay [1] is more than 90%. In addition, in assay [2], the “inhibition of TGF-β1-mediated αSMA expression in IPF donors” value is given as “concentration-dependent inhibition”.
For the molecule `N=C(NO)c1ccc(Nc2ncc(-c3ccc(C(F)(F)F)cn3)o2)cn1` [Example 46, N′-hydroxy-5-((5-(5-(trifluoromethyl)pyridin-2-yl)oxazol-2-yl)amino)-picolinimidamide], the IC50 on Des1 (h) lay in the range of 100 to 1000 nM. Also, in assay [1], the inhibition at 5 µM was more than 90%. For the same molecule, the “inhibition of TGF-β1-mediated αSMA expression in IPF donors” value in assay [2] is “concentration-dependent inhibition”.
